Our source for the IC50 values is patent US8809341B2, “2,4-pyrimidinediamine compounds and uses as anti-proliferative agents” (Rigel Pharmaceuticals, Inc., priority 2003, dated 2014).

pIC50: −log10 of the molar value. Bounds are passed on as bounds.

Test [1] has as its system A549 cells. The experiment in a line: in vitro antiproliferation assay, A549 (lung). In kind it is cell-based. The method, boiled down:
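IC50 values came from standard antiproliferation testing in cultured tumour cells; the A549 and H1299 lines are of lung origin.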

For test [2], the system named is H1299 cells. The experiment in a line: in vitro antiproliferation assay, H1299 (lung). It is filed as cell-based. The protocol: The IC50 values of various compounds against a various different tumor cell lines were determined using standard in vitro antiproliferation assays. The tumor cell lines tested were as follows: A549 (lung); H1299 (lung), ACHN (kidney/p53 wt), CAKI (renal cell carcinoma), NCI-H460 (lung); HCT116 (colon/p53w0; HELA (cervix/p53 wt), HUH7 (liver/p53 wt), HUVEC (primary endothelial), LNCAP (prostate), HT-29 (colon); MCF-7 (breast); MCF-7 (breast/ER positive), MDA MB435S (breast); MDA MB231 (breast/ER negative), DU145 (prostate); BxPC-3 (pancreatic); SKOV-3 (ovarian); HepG2 (hepatic), NDHF primary normal human dermal fibroblast), SKMEL28 (breast/p53mut), SKMEL5 (breast/p53 wt), U20S (bone) and PC3 (prostate). […] A blank indicates the specified compound was not tested against the specified cell line.

The mark [3] stands for this setting: Homo sapiens, IC50 class against A549 (lung) tumor cells.
Setting [4] is: Homo sapiens, NCI-H1299, IC50 class against H1299 (lung) tumor cells.
Setting [5] is: IC50 class against A549 (lung) tumor cells.
Where [6] appears, read: IC50 class against H1299 (lung) tumor cells.
[7] abbreviates: in vitro antiproliferation, A549 (lung) cells, Table 4, compounds with no designated stereochemistry tested as racemate.
Setting [8] is: in vitro antiproliferation, H1299 (lung) cells, Table 4, compounds with no designated stereochemistry tested as racemate.
Setting [9] is: Table 5, in vitro antiproliferation, A549 (lung) cells.
The mark [10] stands for this setting: Table 5, in vitro antiproliferation, H1299 (lung) cells.

In general, pIC50 refers to the negative decadic logarithm of the IC50, by convention in mol/L. A higher pIC50 goes with a low IC50.

For the compound `CC(=O)N1CCN(c2cccc(Nc3ncc(F)c(Nc4cc(C(C)(C)C)[nH]n4)n3)c2)CC1` [compound 200], the pIC50 in test [1] (setting [3]) and in test [2] (setting [4]) was at least 4.70 throughout.
Turning to `CCOC(=O)N1CCN(c2cccc(Nc3ncc(F)c(Nc4cc(C(C)(C)C)[nH]n4)n3)c2)CC1` [compound 201], the negative logarithm of the IC50 (pIC50) in test [1] (setting [3]) and in test [2] (setting [4]) was at least 4.70 in each case.
On to `CC(=O)N1CCN(c2ccc(Nc3ncc(F)c(Nc4cc(C(C)(C)C)[nH]n4)n3)cc2)CC1` [compound 202], for which the pIC50 in test [1] (setting [3]) and in test [2] (setting [4]) was at least 4.70 in each case.
Turning to `COC(=O)N1CCN(c2ccc(Nc3ncc(F)c(Nc4cc(C(C)(C)C)[nH]n4)n3)cc2)CC1` [compound 203], the pIC50 in test [1] (setting [3]) and in test [2] (setting [4]) was at least 4.70 throughout.
With `CN1CCN(c2ccc(Nc3ncc(F)c(Nc4cc(C(C)(C)C)[nH]n4)n3)cc2)CC1` [compound 204], the negative logarithm of the IC50 (pIC50) in test [1] (setting [3]) and in test [2] (setting [4]) was at least 4.70 in each case.
In the case of `CC(=O)N1CCN(c2cccc(Nc3ncc(F)c(Nc4cc(C5CC5)[nH]n4)n3)c2)CC1` [compound 205], the pIC50 in test [1] (setting [3]) and in test [2] (setting [4]) was at least 4.70 in each case.
As to `CN1CCN(c2ccc(Nc3ncc(F)c(Nc4cc(C5CC5)[nH]n4)n3)cc2)CC1` [compound 206], the pIC50 in test [1] (setting [3]) and in test [2] (setting [4]) was at least 4.70 in each case.
Take `Fc1cnc(Nc2cccc(N3CCOCC3)c2)nc1Nc1cc(C2CC2)[nH]n1` [compound 207]: the pIC50 in test [1] (setting [3]) and in test [2] (setting [4]) was at least 4.70 each time.
Regarding `CCOC(=O)N1CCN(c2ccc(Nc3ncc(F)c(Nc4cc(C5CC5)[nH]n4)n3)cc2)CC1` [compound 209], the negative-log IC50 (pIC50) in test [1] (setting [3]) and in test [2] (setting [4]) was at least 4.70 throughout.
On to `Fc1cnc(Nc2ccc(N3CCOCC3)cc2)nc1Nc1cc(C2CC2)[nH]n1` [compound 210], for which the negative-log IC50 (pIC50) in test [1] (setting [3]) is at least 4.70; in test [2] (setting [4]), under 4.70.
For the compound `CN1CCN(c2ccc(Nc3ncc(F)c(Nc4cc(C5CC5)[nH]n4)n3)cc2Cl)CC1` [compound 212], the pIC50 in test [1] (setting [3]) and in test [2] (setting [4]) was at least 4.70 throughout.
As for `Cc1cc(Nc2ncc(F)c(Nc3cc(C4CC4)[nH]n3)n2)ccc1N1CCN(C)CC1` [compound 213], the pIC50 in test [1] (setting [3]) and in test [2] (setting [4]) was at least 4.70 each time.
Take `CN1CCN(c2ccc(Nc3ncc(F)c(Nc4cc(C5CC5)[nH]n4)n3)cc2C(F)(F)F)CC1` [compound 214]: the negative-log IC50 (pIC50) in test [1] (setting [3]) and in test [2] (setting [4]) was at least 4.70 throughout.
As to `CC(C)Nc1nc(Nc2ccc(N3CCN(C)CC3)cc2)ncc1F` [compound 215], the pIC50 in test [1] (setting [5]) and in test [2] (setting [6]) was at least 4.70 throughout.
For the compound `CC(C)Nc1nc(Nc2ccc(N3CCN(C)CC3)c(Cl)c2)ncc1F` [compound 216], the pIC50 in test [1] (setting [5]) and in test [2] (setting [6]) was at least 4.70 throughout.
In the case of `Cc1cc(Nc2ncc(F)c(NC(C)C)n2)ccc1N1CCN(C)CC1` [compound 217], the pIC50 in test [1] (setting [5]) and in test [2] (setting [6]) was at least 4.70 in each case.
For the compound `CC(C)Nc1nc(Nc2ccc(N3CCN(C)CC3)c(C(F)(F)F)c2)ncc1F` [compound 218], the pIC50 in test [1] (setting [5]) and in test [2] (setting [6]) was at least 4.70 in each case.
Take `CC(C)Nc1nc(Nc2cccc(N3CCN(C)CC3)c2)ncc1F` [compound 219]: the pIC50 in test [1] (setting [5]) and in test [2] (setting [6]) was at least 4.70 throughout.
With `CN1CCN(c2ccc(Nc3ncc(F)c(NC(C)(C)C)n3)cc2)CC1` [compound 220], the negative-log IC50 (pIC50) in test [1] (setting [5]) and in test [2] (setting [6]) was at least 4.70 throughout.
As for `CN1CCN(c2cccc(Nc3ncc(F)c(NC(C)(C)C)n3)c2)CC1` [compound 221], the negative logarithm of the IC50 (pIC50) in test [1] (setting [5]) and in test [2] (setting [6]) was at least 4.70 each time.
With `CN1CCN(c2ccc(Nc3ncc(F)c(NC(C)(C)C)n3)cc2Cl)CC1` [compound 222], the negative logarithm of the IC50 (pIC50) in test [1] (setting [5]) and in test [2] (setting [6]) was at least 4.70 throughout.
For the compound `Cc1cc(Nc2ncc(F)c(NC(C)(C)C)n2)ccc1N1CCN(C)CC1` [compound 223], the negative logarithm of the IC50 (pIC50) in test [1] (setting [5]) and in test [2] (setting [6]) was at least 4.70 each time.
With `CN1CCN(c2ccc(Nc3ncc(F)c(NC(C)(C)C)n3)cc2C(F)(F)F)CC1` [compound 224], the pIC50 in test [1] (setting [5]) and in test [2] (setting [6]) was at least 4.70 in each case.
Take `CCN1CCN(c2ccc(Nc3ncc(F)c(NC(C)C)n3)cn2)CC1` [compound 225]: the pIC50 in test [1] (setting [5]) and in test [2] (setting [6]) was at least 4.70 in each case.
For `CCN1CCN(c2ccc(Nc3ncc(F)c(NC(C)(C)C)n3)cn2)CC1` [compound 226], the pIC50 in test [1] (setting [5]) and in test [2] (setting [6]) was at least 4.70 in each case.
With `Cc1cc(Nc2ncc(F)c(NC(C)C)n2)cnc1N1CCN(C)CC1` [compound 227], the pIC50 in test [1] (setting [5]) and in test [2] (setting [6]) was at least 4.70 in each case.
As for `Cc1cc(C)cc(Nc2ncc(F)c(Nc3ccc4c(c3)NC(=O)C(C)O4)n2)c1` (stereo not drawn) [compound 229], the pIC50 in test [1] (setting [7]) and in test [2] (setting [8]) was at least 4.70 each time.
As for `O=C1COc2ccc(Nc3nc(Nc4cccc(-c5ncco5)c4)ncc3F)cc2N1` [compound 236], the pIC50 in test [1] (setting [7]) and in test [2] (setting [8]) was at least 4.70 each time.
On to `O=C1COc2ccc(Nc3nc(Nc4cccc(-c5cnco5)c4)ncc3F)cc2N1` [compound 239], for which the pIC50 was under 4.70 in test [1] (setting [7]) and at least 4.70 in test [2] (setting [8]).
For `C[C@@H]1Oc2ccc(Nc3nc(Nc4cccc(-c5cnco5)c4)ncc3F)cc2NC1=O` [compound 240], in that order: at least 4.70 and under 4.70.
For `CN1C(=O)COc2ccc(Nc3nc(Nc4cccc(O)c4)ncc3F)cc21` [compound 255], in that order: at least 4.70 and at least 4.70.
Take `COc1cc(Nc2ncc(F)c(Nc3ccc4c(c3)NC(=O)C(C)(C)S4(=O)=O)n2)cc(OC)c1` [compound 263]: the negative-log IC50 (pIC50) in test [1] (setting [7]) and in test [2] (setting [8]) was under 4.70 throughout.
Turning to `Cc1cc(C)cc(Nc2ncc(F)c(Nc3ccc4c(c3)NC(=O)C(C)(C)S4(=O)=O)n2)c1` [compound 264], the pIC50 in test [1] (setting [7]) is under 4.70; in test [2] (setting [8]) it was at least 4.70.
For `COc1cc(Nc2ncc(F)c(Nc3ccc4c(c3)NC(=O)C(C)(C)S4(=O)=O)n2)cc(OC)c1OC` [compound 265], in that order: at least 4.70 and at least 4.70.
The corresponding values for `COc1ccc(Nc2ncc(F)c(Nc3ccc4c(c3)NC(=O)C(C)(C)S4(=O)=O)n2)cc1F` [compound 287] are at least 4.70 and at least 4.70.
On to `COc1ccc(Nc2ncc(F)c(Nc3ccc4c(c3)NC(=O)C(C)(C)S4)n2)cc1F` [compound 289], for which the negative logarithm of the IC50 (pIC50) in test [1] (setting [7]) and in test [2] (setting [8]) was at least 4.70 throughout.
As for `COc1ccc(Nc2ncc(F)c(Nc3ccc4c(c3)NC(=O)CS4)n2)cc1F` [compound 290], the pIC50 in test [1] (setting [7]) and in test [2] (setting [8]) was at least 4.70 throughout.
As to `CNC(=O)COc1cccc(Nc2ncc(F)c(Nc3ccc4c(c3)N(C)C(=O)CO4)n2)c1` [compound 299], the negative logarithm of the IC50 (pIC50) was at least 4.70 in test [1] (setting [7]) and under 4.70 in test [2] (setting [8]).
For `CC1(C)Oc2ccc(Nc3nc(Nc4cc(CO)cc(CO)c4)ncc3F)cc2NC1=O` [compound 320], in that order: at least 4.70 and at least 4.70.
On to `COc1cc(Cl)cc(Nc2ncc(F)c(Nc3ccc4c(c3)NC(=O)C(C)(C)O4)n2)c1` [compound 321], for which the pIC50 in test [1] (setting [7]) and in test [2] (setting [8]) was at least 4.70 in each case.
Regarding `COc1cc(Nc2ncc(F)c(N(C)c3ccc4c(c3)NC(=O)C(C)(C)O4)n2)cc(OC)c1` [compound 323], the pIC50 in test [1] (setting [7]) and in test [2] (setting [8]) was at least 4.70 throughout.
Regarding `Cc1cc(C)cc(Nc2ncc(F)c(N(C)c3ccc4c(c3)N(C)C(=O)C(C)(C)O4)n2)c1` [compound 324], the figures for the pIC50 in test [1] (setting [7]) and in test [2] (setting [8]) were at least 4.70 and under 4.70, respectively.
In the case of `COc1ccc(Nc2ncc(F)c(N(C)c3ccc4c(c3)N(C)C(=O)C(C)(C)O4)n2)cc1Cl` [compound 325], the negative-log IC50 (pIC50) in test [1] (setting [7]) and in test [2] (setting [8]) was at least 4.70 in each case.
With `COc1cc(Nc2ncc(F)c(N(C)c3ccc4c(c3)N(C)C(=O)C(C)(C)O4)n2)cc(OC)c1` [compound 326], the pIC50 in test [1] (setting [7]) and in test [2] (setting [8]) was at least 4.70 each time.
On to `COc1ccc(Nc2ncc(F)c(N(C)c3ccc4c(c3)NC(=O)C(C)(C)O4)n2)cc1Cl` [compound 327], for which the negative logarithm of the IC50 (pIC50) in test [1] (setting [7]) and in test [2] (setting [8]) was at least 4.70 each time.
On to `CCOC(=O)COc1cccc(Nc2ncc(F)c(Nc3ccc4c(c3)OCCO4)n2)c1` [compound 491], for which the figures for the negative logarithm of the IC50 (pIC50) in test [1] (setting [9]) and in test [2] (setting [10]) were under 4.70 and at least 4.70, respectively.
The corresponding values for `Fc1cnc(Nc2cccc(Cl)c2)nc1Nc1ccc2c(c1)OC(F)(F)O2` [compound 513] are at least 4.70 and at least 4.70.
Consider `Fc1cnc(Nc2cccc(-c3ncco3)c2)nc1Nc1ccc2c(c1)OCCO2` [compound 515], for which the negative logarithm of the IC50 (pIC50) in test [1] (setting [9]) and in test [2] (setting [10]) was at least 4.70 each time.
As to `Cc1cc(O)cc(Nc2ncc(F)c(Nc3ccc4c(c3)OCCO4)n2)c1` [compound 521], the pIC50 in test [1] (setting [9]) is at least 4.70; in test [2] (setting [10]) it was under 4.70.
The corresponding values for `Fc1cc(Nc2ncc(F)c(Nc3ccc4c(c3)OCCO4)n2)cc(C(F)(F)F)c1` [compound 522] are under 4.70 and under 4.70.
Take `Fc1cc(F)cc(Nc2ncc(F)c(Nc3ccc4c(c3)OCCO4)n2)c1` [compound 524]: the pIC50 in test [1] (setting [9]) and in test [2] (setting [10]) was under 4.70 in each case.
